# Test results from paper PMC6376154 (International Journal for Parasitology: Drugs and Drug …, 2019).
# Like-named read-outs stand apart in the source and are kept apart here.
# Columns and labels:
# [1] = test system: F100TpM, a bovine lymphocyte cell line infected by T. parva; assay: 3H-thymidine incorporation growth assay on F100TpM cells (screen at 1 μM and IC50 titration); conditions: for TI (CC50/IC50), therapeutic index: CC50 on Con A blasts divided by IC50 on F100TpM;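 as to all read-outs here: growth inhibition compared against wells lacking compound, run in triplicate, and CC50 derived from 3H-thymidine uptake by PBMC stimulated with ConA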
# Method: (§1) All the MMV compounds were initially tested for inhibitory activity on the growth of F100TpM, a bovine lymphocyte cell line infected by T. parva. […] All compounds were tested in triplicate.
# (§2) The radiolabeled precursor ^3H-thymidine is incorporated into DNA strands during cell replication and radioisotope incorporation is often used as a measure of cell proliferation.
# (§3) IC50 values were calculated using the Graph Pad Prism 7 software (GraphPad Software, Inc., La Jolla, CA), and average values of radio-isotope incorporation in wells with and without compound on the growth of F100TpM cells. The CC50 values were calculated using ^3H-thymidine incorporation values determined on the growth of PBMC stimulated with ConA. The therapeutic index of a compound was calculated by dividing the CC50 value with the IC50 value.
# [2] = 3H-thymidine incorporation toxicity assay on ConA-stimulated uninfected bovine PBMC (CC50); conditions: bovine
# Method: as §1, §2, §3
# in vitro = conditions: bovine, CC50 (μM) Con A blasts
# Method: as §1, §2, §3
# [3] = test system: P. falciparum 3D7 asexual blood stage; conditions: cited from earlier work; for % inh. At 2.5 uM: given in Comment because of solubility issue at 5 uM
# [4] = design: method as in MMV data sheets; conditions: at 5 uM; ref MMV data sheets; cited from earlier work
# [5] = test system: bovine PBMC stimulated with ConA (Con A blasts)
# Method: as §1, §2, §3
# [6] = test system: bovine PBMC stimulated with ConA (Con A blasts); assay: 3H-thymidine incorporation toxicity assay on ConA-stimulated uninfected bovine PBMC (CC50); conditions: read-out: CC50 (μM) Con A blasts; uninfected bovine PBMC stimulated with ConA, 48 h compound, 3H-thymidine incorporation
# Method: as §1, §2, §3
# [7] = Bos taurus, Lymphocyte, read-out: IC50 (μM) F100TpM, T. parva infected lymphocyte cell line, 48 h compound, 3H-thymidine incorporation
# [8] = uninfected bovine PBMC stimulated with ConA (Con A blasts), CC50 (μM) Con A blasts, uninfected bovine PBMC stimulated with ConA, 48 h compound, 3H-thymidine incorporation
# [9] = MMV Malaria Box sheet, ref MMV data sheets, read-out: EC50_nM
# [10] = source StJude, ref ChEMBL_NTD, read-out: CHEMBL EC50
# [11] = read-out: IC50 (μM) F100TpM, T. parva infected lymphocyte cell line, 48 h compound, 3H-thymidine incorporation
# [12] = MMV Malaria Box data sheet, ref MMV data sheets
# [13] = MMV Malaria Box data sheet, ref MMV data sheets, read-out: EC50_nM
# [14] = source GNF, ref ChEMBL_NTD, read-out: CHEMBL EC50
# [15] = source GSK, ref ChEMBL_NTD, read-out: CHEMBL EC50
# [16] = ChEMBL-NTD value per source (GNF, GSK, StJude), several values in a cell follow the order of the sources, read-out: CHEMBL EC50
# [17] = MMV Malaria Box sheet, ref MMV data sheets
# [18] = MMV Malaria Box data sheet (supplement mmc2.xls), ref MMV data sheet
# [19] = MMV Malaria Box data sheet (supplement mmc2.xls), ref MMV data sheet, read-out: EC50_nM
# [20] = value(s) per source (GSK, GNF, StJude), separated by semicolon, ref ChEMBL-NTD, read-out: CHEMBL EC50
smiles,measurement,setting,value
"CC(C)(C)[C@H]1CC[C@H](CC2=C(O)C(=O)c3ccccc3C2=O)CC1 [Buparvaquone, reference compound]",IC50,[1]; [7],0.0042 µM
same,"TI (CC50/IC50), therapeutic index",[1],>2380
same,"TI (CC50/IC50), therapeutic index",[1]; listed as buparvaquone,more than 2000
same,CC50 at 48 h,[2]; [8],> 10 µM
"Cc1nc(Nc2ncc(C(=O)Nc3c(C)cccc3Cl)s2)cc(N2CCN(CCO)CC2)n1 [Dasatinib, dasatinib, reference compound]",CC50 at 48 h,in vitro,> 10 µM
same,"TI (CC50/IC50), therapeutic index",[1],> 2000
Oc1ccc(Br)cc1CN1CCN(Cc2cccc(F)c2)CC1 [MMV000356],EC50,[3]; [9],1030 nM
same,EC50,[3]; [10],1400 nM
same,IC50,"[1]; Bos taurus, Lymphocyte, read-out: IC50 (μM) F100TpM",0.87 µM
same,"TI (CC50/IC50), therapeutic index",[1],0.99
same,CC50 at 48 h,[2],0.86 µM
"COC(=O)Nc1nc2ccc(C(=O)c3ccccc3)cc2[nH]1 [MMV003152, Mebendazole, reference compound]",CC50 at 48 h,in vitro,< 0.001 µM
same,"TI (CC50/IC50), therapeutic index",[1],<0.001
same,IC50,[1]; [11],0.36 µM
same,IC50,"[1]; read-out: IC50 (μM) F100TpM, T. parva infected lymphocyte cell line, 48 h compound, 3H-thymidine incorporation, listed as mebendazole",< 1 µM
CCCN(CCC)CC(O)COc1ccccc1C(=O)Nc1ccccc1 (centres unmarked) [MMV006455],percent_inh @ 5 uM,[3]; [12],98%
same,EC50,[3]; [13],196 nM
same,EC50,[3]; [14],365 nM
same,EC50,[3]; [15],799 nM
same,IC50,[1]; [7],0.84 µM
same,"TI (CC50/IC50), therapeutic index",[1],1.07
same,CC50 at 48 h,[2]; [8],0.9 µM
COc1cc(-c2nc(-c3ccc(Sc4ccccc4)cc3)c(-c3ccccc3)[nH]2)cc(OC)c1O [MMV007273],EC50,[3]; [16],1280 nM
same,IC50,[1]; [7],0.04 µM
same,"TI (CC50/IC50), therapeutic index",[1],1.5
same,CC50 at 48 h,[2]; [8],0.06 µM
Clc1ccc2c(N3CCCC3)ccnc2c1 [MMV007363],percent_inh @ 5 uM,[3]; [17],97%
same,EC50,[3]; [9],944 nM
same,EC50,[3]; [14],283 nM
same,IC50,[1]; [7],1.93 µM
same,"TI (CC50/IC50), therapeutic index",[1],0.56
same,CC50 at 48 h,[2]; [8],1.09 µM
COc1ccc(-c2nonc2NC(=O)c2cccc(Cl)c2)cc1OC [MMV020660],% inh. At 2.5 uM,[3]; ref MMV data sheets,97%
same,EC50,[3]; [15],876 nM
same,Comment: solubility,[4],Solubility issue at 5 uM
COc1ccc(-c2cnc3ccc(N4CCCC4)nn23)cc1OC [MMV023985],CC50,[5],< 1 nM
same,"TI (CC50/IC50), therapeutic index",[1],<0.001
same,IC50,[1]; [11],0.52 µM
CCOC(=O)c1cnc2c(CC)cccc2c1O [MMV498479],EC50,[3]; [16],1660 nM
same,IC50,[1]; [7],0.05 µM
same,"TI (CC50/IC50), therapeutic index",[1],2.6
same,CC50 at 48 h,[2]; [8],0.13 µM
CCOc1cc(Cl)c(C(C)NC(=O)c2ccccc2)cc1OCC (centres unmarked) [MMV665800],percent_inh @ 5 uM,[3]; [12],96%
same,EC50,[3]; [13],1370 nM
same,EC50,[3]; [15],875 nM
same,IC50,[1]; [7],0.49 µM
same,"TI (CC50/IC50), therapeutic index",[1],1.08
same,CC50 at 48 h,[2]; [8],0.53 µM
CCCc1cc(O)c2c3c(c(=O)oc2c1)CN(C)CC3 [MMV665841],percent_inh @ 5 uM,[3]; [12],97%
same,EC50,[3]; [13],146 nM
same,EC50,[3]; [14],554 nM
same,EC50,[3]; [15],873 nM
same,IC50,[1]; [7],0.36 µM
same,"TI (CC50/IC50), therapeutic index",[1],1.83
same,CC50 at 48 h,[2]; [8],0.66 µM
C=C(C)CCC(C)N1CCC(N2CCC(C(=O)NCCc3ccccc3)CC2)CC1 (centres unmarked) [MMV666110],percent_inh @ 5 uM,[3]; [18],96%
same,EC50,[3]; [19],1750 nM
same,EC50,[3]; [20],4260 nM
Oc1ccccc1CN1CCC2(CCCN(Cc3ccccc3F)C2)C1 (centres unmarked) [MMV666116],percent_inh @ 5 uM,[3]; [18],98%
same,EC50,[3]; [19],548 nM
same,EC50,[3]; [20],679 nM
CC(C)(C)c1ccc(C(=O)Nc2c3c(nn2-c2cccc(Cl)c2)CSC3)cc1 [MMV666123],percent_inh @ 5 uM,[3]; [17],93%
same,EC50,[3]; [10],15000 nM
CC(=O)c1ccc(NC(=O)CSc2nc(-c3ccccc3Cl)ns2)cc1 [MMV666124],% inh. At 2.5 uM,[3]; ref MMV data sheets,88%
same,EC50,[3]; [15],1130 nM
same,Comment: solubility,[4],Solubility issue at 5 uM
CC1=C(CC(=O)c2cccc([N+](=O)[O-])c2)C(=O)c2ccccc2C1=O [MMV666125],percent_inh @ 5 uM,[3]; [17],95%
same,EC50,[3]; [9],381 nM
same,EC50,[3]; [14],2840 nM
CSC1=NC(=Nc2c(C)cccc2C)C2(CCC(C(C)(C)C)CC2)N1c1ccc(Cl)cc1 (centres unmarked) [MMV666596],percent_inh @ 5 uM,[3]; [12],96%
same,EC50,[3]; [13],135 nM
same,EC50,[3]; [14],1480 nM
CCCCCCc1cc2cc(-c3nc4ccccc4[nH]3)c(=Nc3ccccc3C)oc2cc1O [MMV666597],EC50,[3]; [16],2120 nM
O=c1nc(C=Cc2ccc(Br)cc2)oc2ccccc12 [MMV666599],percent_inh @ 5 uM,[3]; [17],94%
same,EC50,[3]; [15],1050 nM
CCOC(=O)c1c(C)n(-c2ccc(Cl)cc2)c2ccc(OC(=O)C=Cc3ccccc3)cc12 [MMV666600],percent_inh @ 5 uM,[3]; [12],97%
same,EC50,[3]; [13],216 nM
same,EC50,[3]; [15],698 nM
CCOC(=O)C1=C(c2ccccc2)N=c2sc(=Cc3cc(C)n(-c4ccc(F)cc4)c3C)c(=O)n2C1c1cccc(OC)c1OC (centres unmarked) [MMV666601],percent_inh @ 5 uM,[3]; [12],94%
same,EC50,[3]; [13],154 nM
same,EC50,[3]; [14],2320 nM
CCOC(=O)C1=C(C)N=c2sc(=Cc3ccccc3O)c(=O)n2C1c1ccc(OC)c2ccccc12 (centres unmarked) [MMV666604],percent_inh @ 5 uM,[3]; [17],97%
same,EC50,[3]; [9],1510 nM
same,EC50,[3]; [15],1260 nM
O=[N+]([O-])c1ccc(C=NNc2nc3ccccc3[nH]2)cc1 [MMV666607],percent_inh @ 5 uM,[3]; [12],99%
same,EC50,[3]; [13],142 nM
same,EC50,[3]; [14],818 nM
same,EC50,[3]; [15],283 nM
COc1ccccc1C(=O)ON=C(N)Cc1cccc2ccccc12 [MMV666686],EC50,[3]; [16],352 nM
COc1cc(C(=O)ON=C(N)Cc2cccc3ccccc23)cc(OC)c1OC [MMV666687],EC50,[3]; [16],280 nM
Cc1cc(C=C2SC(=Nc3ccccc3)N(C3CCCC3)C2=O)c(C)n1-c1ccc(Cl)cc1 [MMV666688],percent_inh @ 5 uM,[3]; [12],97%
same,EC50,[3]; [13],263 nM
same,EC50,[3]; [15],876 nM
COc1ccc(Nc2nc(NN=Cc3ccc(O)cc3)nc(Nc3ccc([N+](=O)[O-])cc3)n2)cc1 [MMV666689],EC50,[3]; [16],1120 nM
COc1ccc(C=C2SC(=N)N(c3ccccc3OC)C2=O)cc1 [MMV666691],percent_inh @ 5 uM,[3]; [12],97%
same,EC50,[3]; [13],168 nM
same,EC50,[3]; [15],300 nM
CCCCCCc1cc2cc(-c3csc(C=Cc4ccccc4)n3)c(=O)oc2cc1O [MMV666692],EC50,[3]; [16],970 nM
COc1cccc(C=Cc2nc(=O)c3ccccc3o2)c1OC [MMV666693],percent_inh @ 5 uM,[3]; [12],96%
same,EC50,[3]; [13],23.8 nM
same,EC50,[3]; [15],64.4 nM
CN(C)c1ccc(N2C(N)=NC(N)=NC2(C)C)cc1 [MMV667487],percent_inh @ 2 uM,"[3]; 2 uM, MMV Malaria Box sheet, ref MMV data sheets",95%
same,EC50,[3]; [14],18.8 nM
same,EC50,[3]; [10],72.8 nM
COc1ccc(CCn2c(=N)c(C(=O)NCc3cccnc3)cc3c(=O)n4cccc(C)c4nc32)cc1 [MMV667488],EC50,[3]; [16],1400 nM
CO[C@@H](C(=O)N1Cc2[nH]nc(NC(=O)c3ccc(N4CCN(C)CC4)cc3)c2C1)c1ccccc1 [MMV676600],CC50,[5],< 1 nM
same,"TI (CC50/IC50), therapeutic index",[1],<0.001
same,IC50,[1]; [11],0.55 µM
CNC(=O)c1nn(C)c2c1C(C)(C)Cc1cnc(Nc3ccc(N4CCN(C)CC4)cc3)nc1-2 [MMV676602],"TI (CC50/IC50), therapeutic index",[1],0.86
same,IC50,[1]; [11],0.35 µM
same,CC50,[6],0.3 µM
Cc1nn(C)c(C)c1NS(=O)(=O)c1c(Cl)cc(-c2ccnc(N3CCNCC3)c2)cc1Cl [MMV688180],"TI (CC50/IC50), therapeutic index",[1],<0.001
same,IC50,[1]; [11],0.97 µM
same,CC50,[6],< 0.001 µM
N=C(N)Nc1ccc(-c2ccc(-c3ccc(N=C(N)N)c(Cl)c3)o2)cc1Cl [MMV688271],CC50,[5],560 nM
same,"TI (CC50/IC50), therapeutic index",[1],0.95
same,IC50,[1]; [11],0.59 µM
O=C(Nc1ccc(F)c(-c2nc3ncc(-c4ccccc4)cc3[nH]2)c1)N1CCCC1 [MMV688372],IC50,[1]; [11],0.61 µM
"CC(=O)OCC1OC([S-])C(OC(C)=O)C(OC(C)=O)C1OC(C)=O.CCP(CC)CC.[Au+] (centres unmarked) [MMV688978, Auranofin, reference compound]","TI (CC50/IC50), therapeutic index",[1],0.74
same,IC50,[1]; [11],0.54 µM
same,IC50,"[1]; read-out: IC50 (μM) F100TpM, T. parva infected lymphocyte cell line, 48 h compound, 3H-thymidine incorporation, listed as auranofin",< 1 µM
same,CC50,[6],0.4 µM
